Measurements published in ChEMBL document CHEMBL1142430, “Acremine G, dimeric metabolite from cultures of Acremonium byssoides A20” (J Nat Prod, 2008).

Legend:
Plasmopara viticola = assay: Inhibition of germination of sporangia of Plasmopara viticola at 1 mM; assay type: functional
NCI-H460 = assay: Cytotoxicity against human H460 cells; assay type: functional, cell-based

Row | SMILES | inhibition at 1000 µM (Plasmopara viticola) | IC50 (NCI-H460)
1 | CC1=CC2c3cc(O)c(C)cc3OC3(C1)C(=O)C(C)=CC(=O)C23/C=C/C(C)(C)O (racemic) | 72.5% | 48 µM
2 | CC(C)(O)/C=C/C1=CC(=O)[C@](C)(O)C[C@@H]1O [ACREMINE A] | 58.2% | > 100 µM
3 | CC(C)(O)/C=C/C1=CC(=O)[C@](C)(O)CC1=O [ACREMINE B] | 57.7% | 36 µM
